In experiment [1] the target is T1, cGKII (Mus musculus, UniProt Q61410).
T1 construct: gene Prkg2; recombinant murine cGKII expressed in SF9 cells
T1 sequence (Q61410 2-762): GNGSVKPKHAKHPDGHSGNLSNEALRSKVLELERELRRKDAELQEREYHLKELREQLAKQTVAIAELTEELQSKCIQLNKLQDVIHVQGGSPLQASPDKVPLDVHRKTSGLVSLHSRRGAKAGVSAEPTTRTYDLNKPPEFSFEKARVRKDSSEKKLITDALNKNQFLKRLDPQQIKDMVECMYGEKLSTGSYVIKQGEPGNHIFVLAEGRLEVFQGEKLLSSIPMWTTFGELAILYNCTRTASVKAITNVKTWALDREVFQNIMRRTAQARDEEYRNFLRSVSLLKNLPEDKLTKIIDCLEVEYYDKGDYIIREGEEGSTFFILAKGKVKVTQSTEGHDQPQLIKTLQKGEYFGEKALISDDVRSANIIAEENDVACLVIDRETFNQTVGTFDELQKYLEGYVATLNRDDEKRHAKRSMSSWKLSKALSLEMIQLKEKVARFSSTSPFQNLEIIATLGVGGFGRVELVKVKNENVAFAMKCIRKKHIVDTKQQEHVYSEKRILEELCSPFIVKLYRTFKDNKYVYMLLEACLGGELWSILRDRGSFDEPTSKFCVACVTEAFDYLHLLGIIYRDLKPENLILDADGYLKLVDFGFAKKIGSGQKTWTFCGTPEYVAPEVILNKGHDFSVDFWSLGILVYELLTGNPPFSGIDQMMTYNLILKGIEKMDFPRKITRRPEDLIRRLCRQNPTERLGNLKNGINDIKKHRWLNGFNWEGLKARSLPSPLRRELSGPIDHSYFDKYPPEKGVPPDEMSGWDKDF
Briefly: (γ-32P) ATP kinase assay with IRAGtide, activation of purified enzyme. The experiment is classed as biochemical.

Experiment [2] deals with T2, cAKRIα (Mus musculus, UniProt Q9DBC7).
T2 construct: gene Prkar1a; endogenous regulatory subunit in lung tissue lysate
Nature of the experiment: 4-AH-cCMP agarose affinity chromatography competed by free cCMP; mass spectrometry and immunoblot (cAKRIα/β antibody). It is filed as cell-based. For orientation: Immunoblotting shows a protein as a band on a membrane.

The target of experiment [3] is T3, cGKI (Mus musculus, UniProt P0C605).
T3 construct: gene Prkg1
T3 sequence (P0C605 2-671): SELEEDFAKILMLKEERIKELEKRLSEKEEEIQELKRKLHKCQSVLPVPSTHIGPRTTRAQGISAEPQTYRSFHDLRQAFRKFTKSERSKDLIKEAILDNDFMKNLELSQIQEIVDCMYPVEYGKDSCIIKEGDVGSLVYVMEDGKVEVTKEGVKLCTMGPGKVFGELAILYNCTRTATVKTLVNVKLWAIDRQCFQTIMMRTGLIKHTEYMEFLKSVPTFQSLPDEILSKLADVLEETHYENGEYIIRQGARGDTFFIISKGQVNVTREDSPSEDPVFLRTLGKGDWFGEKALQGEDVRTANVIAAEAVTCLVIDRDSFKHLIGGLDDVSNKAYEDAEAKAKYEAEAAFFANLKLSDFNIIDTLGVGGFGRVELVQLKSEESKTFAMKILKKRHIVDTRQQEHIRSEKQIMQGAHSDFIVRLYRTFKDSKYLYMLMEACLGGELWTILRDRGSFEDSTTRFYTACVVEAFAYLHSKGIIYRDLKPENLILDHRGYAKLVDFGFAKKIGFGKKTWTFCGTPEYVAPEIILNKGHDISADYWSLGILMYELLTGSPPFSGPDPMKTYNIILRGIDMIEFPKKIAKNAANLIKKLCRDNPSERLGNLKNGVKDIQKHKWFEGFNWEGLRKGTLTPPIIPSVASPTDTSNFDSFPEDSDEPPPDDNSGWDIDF

T2 sequence (Q9DBC7 2-381): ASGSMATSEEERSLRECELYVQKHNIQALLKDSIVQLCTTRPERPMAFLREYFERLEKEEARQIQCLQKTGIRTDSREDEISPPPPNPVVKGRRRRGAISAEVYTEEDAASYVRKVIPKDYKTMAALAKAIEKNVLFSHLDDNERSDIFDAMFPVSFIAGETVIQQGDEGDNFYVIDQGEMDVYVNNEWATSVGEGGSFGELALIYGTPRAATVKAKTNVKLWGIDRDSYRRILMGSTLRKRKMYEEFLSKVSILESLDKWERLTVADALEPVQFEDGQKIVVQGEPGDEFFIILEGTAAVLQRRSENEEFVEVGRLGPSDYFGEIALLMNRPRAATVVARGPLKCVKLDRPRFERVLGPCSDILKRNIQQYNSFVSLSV

With `Nc1ccn([C@@H]2O[C@@H]3COP(=O)(O)O[C@H]3[C@H]2O)c(=O)n1` [cCMP], in experiment [1], the midpoint of the response, the EC50, lay at 110 ± 8 µM. The “4-AH-cCMP agarose affinity chromatography competed by free cCMP; mass spectromet” value in experiment [2] is recorded as “Specific binding of cCMP to cAKRIα/β was also detected”.

As to `Nc1nc2c(ncn2[C@@H]2O[C@@H]3COP(=O)(O)O[C@H]3[C@H]2O)c(=O)[nH]1` [cGMP], in experiment [3], the half-maximal effective concentration (EC50) turned out to be 2 ± 0.5 µM.

Broadly, the EC50 is the concentration at which the effect is half-maximal. A lower EC50 goes with higher potency in that assay.
